System: HepG2 CYP1A2
Experiment: Competitive coincubation of [18F]1 with competitors, HepG2 CYP1A2
Settings: 1 h; competitor 1 or 10 µM
Protocol: Radio thin-layer chromatography (radio-TLC) was carried out on reversed-phase TLC plates (ALUGRAM RP-18W/UV254 from Macherey-Nagel, Düren, Germany) with a mobile phase of 45% ACN in water containing 0.1% trifluoroacetic acid. The samples (2 µL) were spotted onto the TLC plate. The line of origin and the front line were labeled with 1/5 of the sample activity concentration. To track the Rf value of the intact radiotracer, each TLC was spotted with the intact tracer as reference in the middle. Detection of the activity signals was achieved after 10–30 min development on radioluminographic imaging plates (FUJIFILM, Tokyo, Japan) and subsequent readout with Fuji BAS 5000® or Amersham™ Typhoon™ from GE Healthcare (Uppsala, Sweden). The resulting chromatographic profile was analyzed and integrated with the help of AIDA Image Analysis Software (version 5.1). For data depiction, the fraction of each species (intact radiotracer, metabolite, [^18F]fluoride) was plotted.
Incubations were conducted for up to 2 h in a 96-well plate in KHB with a total incubation volume of 50 µL and an ethanol concentration of 0.4%. For the incubation with radiotracers, an activity of 100–200 kBq/well at the start of the experiment was used.
Our last interest within this study was to test if the tracer itself could function as an indicator for the conversion of other substrates acting via inhibition of or competition with the CYP enzymes. In this regard, alternative substrates were added to the incubation mixtures with [^18F]1. The investigated substrates covered testosterone, caffeine, progesterone, compound 3, tebufelone, and RWJ63556 [44] (10 µM for all substances). Furthermore, the influence of testosterone on the metabolic turnover of [^18F]1 was investigated over a concentration range of 1–50 µM.
Figure 7 Coincubation of [^18F]1 and different competitors with (A) HepG2 CYP1A2 and (B) HepG2 CYP2C19. […] Each competitor/inhibitor was incubated with [^18F]1 for 1 h followed by radio-TLC analysis. Activity concentrations of 94–197 kBq/well (1.9–3.9 MBq/mL) were used at start of experiment, which correspond to a concentration of 120–125 nM. Statistical analysis performed with Dunnett’s multiple comparison (post hoc test) according to the intact tracer amount (* p < 0.05; *** p < 0.001; **** p < 0.0001; n = 4).

Cn1c(=O)c2c(ncn2C)n(C)c1=O [caffeine]
Effect of coincubation on metabolic profile / intact [18F]1 (in words): no change in the metabolic profile
